What is called IC50 is the concentration that inhibits the measured activity by half.

The text below walks through data of patent US20110301142A1, “ANTAGONISTS OF LYSOPHOSPHATIDIC ACID RECEPTORS” (priority 2008, published 2011).

The structures appear in SMILES notation.

For one assay, the target named is T1, human LPA1 (Homo sapiens, UniProt Q92633).
T1 construct: the full-length cDNA for human LPA1 was obtained by PCR of the reverse transcription reaction; expressed in transfected cells
As to the kind of experiment: LPA1 calcium flux assay (HLPA1 Ca Flux). Format: cell-based. Conditions: Human LPA1 expressing CHO cells, stimulated with 10 nM LPA. Put shortly: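 CHO cells stably expressing cloned human LPA1, serum-starved overnight and loaded with Calcium 4 dye, were preincubated 30 min at room temperature with compound. Cells were then challenged with 10 nM LPA and intracellular Ca2+ measured; IC50 values came from titration curves.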
(In general: A change in cytosolic calcium serves as a functional read-out for many receptors and channels.)

The next assay addresses T2, human LPA3 (Homo sapiens, UniProt Q9UBY5).
T2 construct: The full-length cDNA fragment for human LPA3 was obtained by PCR from the vector; expressed in transfected cells; cDNA from the Missouri S&T cDNA Resource Center
T2 sequence (Q9UBY5 1-353): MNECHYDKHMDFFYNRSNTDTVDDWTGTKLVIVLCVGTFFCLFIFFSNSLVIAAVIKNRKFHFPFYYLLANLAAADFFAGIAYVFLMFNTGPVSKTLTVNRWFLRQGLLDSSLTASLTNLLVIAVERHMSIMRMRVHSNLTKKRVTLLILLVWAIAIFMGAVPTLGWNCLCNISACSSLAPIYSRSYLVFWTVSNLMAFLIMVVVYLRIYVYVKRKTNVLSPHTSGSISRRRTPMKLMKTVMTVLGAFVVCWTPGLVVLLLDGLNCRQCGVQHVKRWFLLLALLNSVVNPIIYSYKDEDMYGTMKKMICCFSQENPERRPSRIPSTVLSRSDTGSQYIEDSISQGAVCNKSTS
As to the kind of experiment: LPA3 calcium flux assay. In kind it is cell-based. The conditions noted are these: Human LPA3 expressing CHO cells, stimulated with 10 nM LPA; read-out: HLPA3 Ca Flux IC50. Here is the method: A vector containing the human LPA3 receptor cDNA was obtained from the Missouri S&T cDNA Resource Center (www.cdna.org). The full-length cDNA fragment for human LPA3 was obtained by PCR from the vector. The nucleotide sequence of the cloned human LPA3 was determined by sequencing and confirmed to be identical to the published human LPA3 sequence (NCBI accession number NM 012152). The cDNA was cloned into the pcDNA5/FRT expression plasmid and transfected in CHO cells using lipofectamine 2000 (Invitrogen Corp., USA). Clones stably expressing human LPA3 were selected using hygromycin and identified as cells that show Ca-influx in response to LPA.
Human LPA1 or LPA3 expressing CHO cells are seeded at 20,000-45,000 cells per well in a 96-well poly-D-lysine coated plate one or two days before the assay. Prior to the assay, the cells are washed once with PBS and then cultured in serum-free media overnight. On the day of the assay, a calcium indicator dye (Calcium 4, Molecular Devices) in assay buffer (HBSS with Ca^2+ and Mg^2+ and containing 20 mM Hepes and 0.3% fatty-acid free human serum albumin) is added to each well and incubation continued for 1 hour at 37° C. 10 μl of test compounds in 2.5% DMSO are added to the cells and incubation continued at room temperature for 30 minutes. Cells are the stimulated by the addition of 10 nM LPA and intracellular Ca^2+ measured using the Flexstation 3 (Molecular Devices). IC50s are determined using Graphpad prism analysis of drug titration curves.

T1 sequence (Q92633 whole entry): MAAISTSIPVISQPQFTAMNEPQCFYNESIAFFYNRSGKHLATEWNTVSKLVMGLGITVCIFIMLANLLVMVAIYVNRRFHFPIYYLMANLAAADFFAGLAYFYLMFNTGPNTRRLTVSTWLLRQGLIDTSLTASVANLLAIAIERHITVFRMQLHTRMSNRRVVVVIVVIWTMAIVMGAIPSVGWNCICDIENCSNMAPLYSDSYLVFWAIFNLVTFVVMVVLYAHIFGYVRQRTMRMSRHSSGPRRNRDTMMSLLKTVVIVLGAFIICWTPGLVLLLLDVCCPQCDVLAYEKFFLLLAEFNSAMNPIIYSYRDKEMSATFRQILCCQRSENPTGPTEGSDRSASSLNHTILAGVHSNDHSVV

On to `Cc1noc(-c2ccc(-c3ccc(CC(=O)O)cc3)cc2)c1NC(=O)OC(C)c1ccc(F)cc1F` (stereo not shown) [Compound 1-117, (4′-{4-[1-(2,4-Difluoro-phenyl)-ethoxycarbonylamino]-3-methyl-isoxazol-5-yl}-biphenyl-4-yl)-acetic acid], for which the IC50 on human LPA1 is below 0.3 µM; at human LPA3, 1 to 50 µM.
As to `COc1ccc(CC(=O)O)cc1-c1cccc(-c2onc(C)c2NC(=O)OC(C)c2ccccc2Cl)c1` (stereo not shown) [Compound 1-30, (3′-{4-[1-(2-Chloro-phenyl)-ethoxycarbonylamino]-3-methyl-isoxazol-5-yl}-6-methoxy-biphenyl-3-yl)-acetic acid], the figures for the 50% inhibitory concentration (IC50) on human LPA1 and on human LPA3 were 0.3 to 1 µM and 1 to 50 µM, respectively.
For `Cc1noc(-c2ccc(-c3ccc(C(C)(C)C(=O)O)cc3)cc2)c1NC(=O)OC(C)c1ccccc1F` (stereo not shown) [Compound 1-86, 2-(4′-{4-[1-(2-Fluoro-phenyl)-ethoxycarbonylamino]-3-methyl-isoxazol-5-yl}-biphenyl-4-yl)-2-methyl-propionic acid], the values for the IC50 at human LPA1 and on human LPA3 were below 0.3 µM and 1 to 50 µM, respectively.
In the case of `Cc1noc(-c2ccc(-c3ccc(F)c(CC(=O)O)c3)cc2)c1NC(=O)OC(C)c1ccccc1Cl` (stereo not shown) [Compound 1-65, (4′-{4-[1-(2-Chloro-phenyl)-ethoxycarbonylamino]-3-methyl-isoxazol-5-yl}-4-fluoro-biphenyl-3-yl)-acetic acid], the results for the IC50 on human LPA1 and on human LPA3 were below 0.3 µM and 1 to 50 µM, respectively.
As for `Cc1noc(-c2ccc(Cc3ccc(C(=O)O)s3)cc2)c1NC(=O)OC(C)c1ccccc1Cl` (stereo not shown) [Compound 1-15, 5-(4-{4-[1-(2-Chloro-phenyl)-ethoxycarbonylamino]-3-methyl-isoxazol-5-yl}-benzyl)-thiophene-2-carboxylic acid], the values for the 50% inhibitory concentration (IC50) on human LPA1 and at human LPA3 were below 0.3 µM and 1 to 50 µM, respectively.
For the compound `Cc1cc(-c2onc(C)c2NC(=O)O[C@H](C)c2ccccc2F)ccc1-c1ccc(CC(=O)O)cc1` [Compound 1-85, (4′-{4-[(R)-1-(2-Fluoro-phenyl)-ethoxycarbonylamino]-3-methyl-isoxazol-5-yl}-2′-methyl-biphenyl-4-yl)-acetic acid], the IC50 was below 0.3 µM at human LPA1 and 1 to 50 µM on human LPA3.
As for `Cc1noc(-c2ccc(-c3ccc(CC(=O)O)cc3)cc2)c1NC(=O)OC(C)c1ccc(Cl)cc1F` (stereo not shown) [Compound 1-77, (4′-{4-[1-(4-Chloro-2-fluoro-phenyl)-ethoxycarbonylamino]-3-methyl-isoxazol-5-yl}-biphenyl-4-yl)-acetic acid], the IC50 is below 0.3 µM at human LPA1 and 1 to 50 µM at human LPA3.
The like results for `Cc1noc(-c2ccc(-c3ccc(C(C)C(=O)O)cc3)cc2)c1NC(=O)OC(C)c1ccccc1Cl` (stereo not shown) [Compound 1-71, 2-(4′-{4-[1-(2-Chloro-phenyl)-ethoxycarbonylamino]-3-methyl-isoxazol-5-yl}-biphenyl-4-yl)-propionic acid] were, in that order, below 0.3 µM and 1 to 50 µM.
On to `Cc1noc(-c2ccc(-c3ccc(CC(=O)O)cc3)cc2)c1NC(=O)O[C@@H](C)c1ccccc1` [Compound 1-143, {4′-[3-Methyl-4-((S)-1-phenyl-ethoxycarbonylamino)-isoxazol-5-yl]-biphenyl-4-yl}-acetic acid], for which the IC50 on human LPA1 was below 0.3 µM; on human LPA3, 1 to 50 µM.
Taken in the same sequence, the figures for `COc1ccc(CC(=O)O)cc1-c1ccc(-c2onc(C)c2NC(=O)OC(C)c2ccccc2Cl)cc1` (stereo not shown) [Compound 1-49, (4′-{4-[1-(2-Chloro-phenyl)-ethoxycarbonylamino]-3-methyl-isoxazol-5-yl}-6-methoxy-biphenyl-3-yl)-acetic acid] were 0.3 to 1 µM and 1 to 50 µM.
Regarding `Cc1noc(-c2ccc(-c3cccc(CC(=O)O)c3)cc2)c1NC(=O)O[C@H](C)c1ccccc1` [Compound 1-121], the IC50 on human LPA1 is below 0.3 µM; on human LPA3 it was above 50 µM.
The like results for `COc1ccc(CC(=O)O)cc1Cc1ccc(-c2onc(C)c2NC(=O)OC(C)c2ccccc2Cl)cc1` (stereo not shown) [Compound 1-7, [3-(4-{4-[1-(2-Chloro-phenyl)-ethoxycarbonylamino]-3-methyl-isoxazol-5-yl}-benzyl)-4-methoxy-phenyl]-acetic acid] were, in that order, 0.3 to 1 µM and 1 to 50 µM.
Taken in the same sequence, the figures for `Cc1noc(-c2ccc(-c3ccc(CC(=O)O)cc3)cc2)c1NC(=O)OC(C)c1ccccc1Cl` (stereo not shown) [Compound 1-58, (4′-{4-[1-(2-Chloro-phenyl)-ethoxycarbonylamino]-3-methyl-isoxazol-5-yl}-biphenyl-4-yl)-acetic acid] were below 0.3 µM and 1 to 50 µM.
`Cc1noc(-c2ccc(-c3ccc(CC(=O)O)cn3)cc2)c1NC(=O)OC(C)c1ccccc1Cl` (stereo not shown) [Compound 1-61, [6-(4-{4-[1-(2-Chloro-phenyl)-ethoxycarbonylamino]-3-methyl-isoxazol-5-yl}-phenyl)-pyridin-3-yl]-acetic acid]: the IC50 at human LPA1 is below 0.3 µM; on human LPA3, 1 to 50 µM.
`Cc1noc(-c2ccc(-c3ccc(C(C)C(=O)O)cc3)cc2)c1NC(=O)OC(C)c1ccccc1F` (stereo not shown) [Compound 1-74, 2-(4′-{4-[1-(2-Fluoro-phenyl)-ethoxycarbonylamino]-3-methyl-isoxazol-5-yl}-biphenyl-4-yl)-propionic acid]: the IC50 at human LPA1 was below 0.3 µM; at human LPA3, 1 to 50 µM.
Regarding `Cc1noc(-c2ccc(-c3ccc(C(=O)O)cc3)cc2)c1NC(=O)O[C@H](C)c1ccccc1Cl` [Compound 1-133, 4′-{4-[(R)-1-(2-Chloro-phenyl)-ethoxycarbonylamino]-3-methyl-isoxazol-5-yl}-biphenyl-4-carboxylic acid], the 50% inhibitory concentration (IC50) at human LPA1 was below 0.3 µM; on human LPA3, 0.3 to 1 µM.
The like results for `Cc1noc(-c2ccc(COc3ccc(CC(=O)O)cc3)cc2)c1NC(=O)OC(C)c1ccccc1Cl` (stereo not shown) [Compound 1-100, [4-(4-{4-[1-(2-Chloro-phenyl)-ethoxycarbonylamino]-3-methyl-isoxazol-5-yl}-benzyloxy)-phenyl]-acetic acid] were, in that order, below 0.3 µM and 1 to 50 µM.
With `Cc1noc(-c2ccc(-c3cc(C(=O)O)ccn3)cc2)c1NC(=O)OC(C)c1ccccc1Cl` (stereo not shown) [Compound 1-50, 2-(4-{4-[1-(2-Chloro-phenyl)-ethoxycarbonylamino]-3-methyl-isoxazol-5-yl}-phenyl)-isonicotinic acid], the IC50 on human LPA1 was below 0.3 µM; on human LPA3, 1 to 50 µM.
For the compound `Cc1noc(-c2ccc(Oc3cccc(CC(=O)O)c3)cc2)c1NC(=O)O[C@H](C)c1ccccc1F` [Compound 1-96, [3-(4-{4-[1-(2-Fluoro-phenyl)-ethoxycarbonylamino]-3-methyl-isoxazol-5-yl}-phenoxy)-phenyl]-acetic acid], the IC50 at human LPA1 was below 0.3 µM; on human LPA3 it was 1 to 50 µM.
As to `COc1ccccc1C(C)OC(=O)Nc1c(C)noc1-c1ccc(-c2ccc(CC(=O)O)cc2)cc1` (stereo not shown) [Compound 1-28, (4′-{4-[1-(2-Methoxy-phenyl)-ethoxycarbonylamino]-3-methyl-isoxazol-5-yl}-biphenyl-4-yl)-acetic acid], the IC50 on human LPA1 is below 0.3 µM; on human LPA3, above 50 µM.
With `COC(=O)Cc1ccc(-c2ccc(-c3onc(C)c3NC(=O)OC(C)c3ccccc3Cl)cc2)cc1` (stereo not shown) [Compound 1-69, (4′-{4-[1-(2-Chloro-phenyl)-ethoxycarbonylamino]-3-methyl-isoxazol-5-yl}-biphenyl-4-yl)-acetic acid methyl ester], the 50% inhibitory concentration (IC50) on human LPA1 was below 0.3 µM; at human LPA3 it was 1 to 50 µM.
The like results for `Cc1noc(-c2ccc(-c3ccc(C(=O)O)nc3)cc2)c1NC(=O)OC(C)c1ccccc1Cl` (stereo not shown) [Compound 1-56, 5-(4-{4-[1-(2-Chloro-phenyl)-ethoxycarbonylamino]-3-methyl-isoxazol-5-yl}-phenyl)-pyridine-2-carboxylic acid] were, in that order, below 0.3 µM and 1 to 50 µM.
Taken in the same sequence, the figures for `Cc1noc(-c2ccc(-c3ccc(C(C)(C)C(=O)O)cc3)cc2)c1NC(=O)O[C@H](C)c1ccccc1F` [Compound 1-90, 2-(4′-{4-[(R)-1-(2-Fluoro-phenyl)-ethoxycarbonylamino]-3-methyl-isoxazol-5-yl}-biphenyl-4-yl)-2-methyl-propionic acid] were below 0.3 µM and 1 to 50 µM.
